Source: patent US5169854A, “N-substituted-furylalkenyl hydroxamic acid and N-hydroxyurea compounds having lipoxygenase inhibitory activity” (Abbott Laboratories, priority 1992, dated 1992)

Legend:
[1] = biological target: T1, 5-Lipoxygenase (Homo sapiens, UniProt P09917); experiment: Inhibition of calcium ionophore A23187-induced LTB4 biosynthesis in human whole blood (5-Lipoxygenase Inhibitory Activity); format: cell-based; design: endogenous in cells; host or cells: human heparinized whole blood (blood leukocytes)
T1 sequence (P09917 1-674): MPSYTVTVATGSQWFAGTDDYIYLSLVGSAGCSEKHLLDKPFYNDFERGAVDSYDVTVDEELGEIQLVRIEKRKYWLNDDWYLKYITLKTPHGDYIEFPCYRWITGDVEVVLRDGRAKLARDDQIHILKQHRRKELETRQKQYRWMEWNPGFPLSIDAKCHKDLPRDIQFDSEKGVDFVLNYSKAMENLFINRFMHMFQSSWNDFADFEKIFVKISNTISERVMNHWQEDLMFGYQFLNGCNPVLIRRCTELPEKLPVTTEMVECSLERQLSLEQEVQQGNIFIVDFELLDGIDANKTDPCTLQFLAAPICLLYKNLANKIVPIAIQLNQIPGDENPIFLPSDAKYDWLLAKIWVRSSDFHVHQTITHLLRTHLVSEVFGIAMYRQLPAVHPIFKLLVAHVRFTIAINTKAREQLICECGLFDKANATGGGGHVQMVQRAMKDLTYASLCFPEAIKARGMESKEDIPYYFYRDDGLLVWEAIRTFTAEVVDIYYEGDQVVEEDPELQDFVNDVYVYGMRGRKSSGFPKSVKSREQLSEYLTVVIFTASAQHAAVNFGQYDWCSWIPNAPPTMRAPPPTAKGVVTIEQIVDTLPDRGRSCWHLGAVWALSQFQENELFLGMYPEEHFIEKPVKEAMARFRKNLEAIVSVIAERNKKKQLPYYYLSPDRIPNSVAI
Description: Inhibition of leukotriene biosynthesis was evaluated in an assay, involving calcium ionophore-induced LTB4 biosynthesis expressed human whole blood. Human heparinized whole blood was preincubated with test compounds or vehicle for 15 min at 37° C. followed by calcium ionophore A23187 challenge (final concentration of 8.3 μM) and the reaction terminated after 30 min by adding two volumes of methanol containing prostaglandin B2 as an internal recovery standard. The methanol extract was analyzed for LTB4 using a commercially available radioimmunoassay.

[2] = test system: Leukotriene Biosynthesis; experiment: Inhibition of leukotriene biosynthesis in vivo after oral administration, rat peritoneal anaphylaxis model; conditions: oral gavage 100 μmol/kg, one hour prior to antigen challenge, peritoneal fluid leukotrienes 15 min after challenge
Description: Inhibition of the biosynthesis of leuktrienes in vivo after oral administration of compound was determined using a rat peritoneal anaphylaxis model in a similar manner as that described by Young and coworkers (Young, P. R.; Dyer, R. D.; Carter, G. W. Fed. Proc., Fed. Am. Soc. Exp. Biol. 1985 (44), 1185). In this model rats were injected intraperitoneally (ip) with rabbit antibody to bovine serum albumin (BSA) and three hours later injected ip with BSA to induce an antgen-antibody response. Rats were sacrificed 15 minutes after this challenge and the peritoneal fluids were collected and analyzed for leukotriene levels. Test compounds were administered by gavage one hour prior to the antigen challenge. Percent inhibition values were determined by comparing the treatment group to the mean of the control group.

| IC50 ([1]; human heparinized whole blood, LTB4 by radioimmunoassay, A23187 8.3 μM, 15 min preincubation at 37° C.) [nM] | 5-Lipoxygenase Inhibitory Activity, percent inhibition ([1]; at 0.39 (10^-6 M), human whole blood LTB4) [%] | Molecule | Percent Inhibition of Leukotriene Biosynthesis at an Oral Dose of 100 μmol/kg [2] [%] |
| --- | --- | --- | --- |
| 160 | – | CC(/C=C/c1ccc(Oc2ccc(F)cc2)o1)N(O)C(N)=O (stereo not shown) [Example 1, E-N-[4-(5-(4-Fluorophenoxy)-2-furanyl)but-3-en-2-yl]-N-hydroxyurea] | 98 |
| – | – | NC(=O)N(O)CC=Cc1ccc(Oc2ccccc2)o1 [Example 2, N-hydroxy-N-[3-(5-phenoxyfur-2-yl)prop-2-enyl]urea] | 99 |
| – | 77 | Z-N-[4-(5-(4 -fluorophenoxy)-2-furanyl)-2-fluorobut-3-en-2-yl]-N-hydroxyurea [Example 3] | – |
